According to ChEMBL document CHEMBL1909046, “DrugMatrix in vitro pharmacology data”:

Assays:
Neutrophil elastase = target: T1, Neutrophil elastase (Homo sapiens, UniProt P08246); type: tissue-based;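 further: inhibition of neutrophil elastase enzyme activity, measured with a p-nitroanilide-linked peptide substrate; in other assays of this panel Not Active means under 50% inhibition at 10 µM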
T1 sequence (P08246 whole entry): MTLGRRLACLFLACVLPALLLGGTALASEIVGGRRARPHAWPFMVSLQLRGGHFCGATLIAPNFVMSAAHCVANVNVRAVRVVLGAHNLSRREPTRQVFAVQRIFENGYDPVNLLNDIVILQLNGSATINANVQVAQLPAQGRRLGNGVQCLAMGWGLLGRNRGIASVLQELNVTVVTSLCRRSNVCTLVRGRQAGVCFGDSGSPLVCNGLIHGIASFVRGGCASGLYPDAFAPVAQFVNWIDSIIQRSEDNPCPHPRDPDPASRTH

[1] = target: Tyrosine-protein kinase Lck (Homo sapiens, UniProt P06239); assay: DRUGMATRIX: Protein Tyrosine Kinase, LCK enzyme inhibition (substrate: Poly(Glu:Tyr)); type: cell-based, Insect cells; conditions: insect cells; Not Active = under 50% inhibition at 10 µM
[2] = target: T2, Alpha-1B adrenergic receptor (Rattus norvegicus, UniProt P15823); assay: DRUGMATRIX: Alpha-1B adrenergic receptor radioligand binding (ligand: prazosin); type: cell membranes, Wistar, Liver, Membrane; conditions: Not Active = under 50% inhibition at 10 µM
T2 sequence (P15823 whole entry): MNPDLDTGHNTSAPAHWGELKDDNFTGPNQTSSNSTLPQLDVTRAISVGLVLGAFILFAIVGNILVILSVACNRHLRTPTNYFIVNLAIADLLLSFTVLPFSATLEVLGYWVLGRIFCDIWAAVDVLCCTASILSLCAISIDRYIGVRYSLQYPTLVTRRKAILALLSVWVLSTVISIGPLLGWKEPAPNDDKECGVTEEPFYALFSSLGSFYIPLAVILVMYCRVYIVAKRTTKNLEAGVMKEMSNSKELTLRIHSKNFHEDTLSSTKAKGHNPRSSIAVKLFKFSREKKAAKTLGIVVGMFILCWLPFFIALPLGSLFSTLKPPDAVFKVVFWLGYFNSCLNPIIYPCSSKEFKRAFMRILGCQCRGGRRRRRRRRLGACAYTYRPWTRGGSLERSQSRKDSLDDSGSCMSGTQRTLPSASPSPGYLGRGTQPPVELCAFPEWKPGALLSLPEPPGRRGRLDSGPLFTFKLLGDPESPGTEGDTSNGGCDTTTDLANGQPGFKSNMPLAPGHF

[3] = DRUGMATRIX: Glutamate, NMDA, Agonism radioligand binding (ligand: [3H] CGP-39653); type: cell membranes, Rattus norvegicus, Wistar, Cerebral cortex, Membrane; conditions: Not Active = under 50% inhibition at 10 µM
Endothelin-1 receptor = target: T3, Endothelin-1 receptor (Homo sapiens, UniProt P25101); type: cell membranes, CHO-K1, Membrane; conditions: cho-k1; further: in other assays of this panel Not Active means under 50% inhibition at 10 µM
T3 sequence (P25101 whole entry): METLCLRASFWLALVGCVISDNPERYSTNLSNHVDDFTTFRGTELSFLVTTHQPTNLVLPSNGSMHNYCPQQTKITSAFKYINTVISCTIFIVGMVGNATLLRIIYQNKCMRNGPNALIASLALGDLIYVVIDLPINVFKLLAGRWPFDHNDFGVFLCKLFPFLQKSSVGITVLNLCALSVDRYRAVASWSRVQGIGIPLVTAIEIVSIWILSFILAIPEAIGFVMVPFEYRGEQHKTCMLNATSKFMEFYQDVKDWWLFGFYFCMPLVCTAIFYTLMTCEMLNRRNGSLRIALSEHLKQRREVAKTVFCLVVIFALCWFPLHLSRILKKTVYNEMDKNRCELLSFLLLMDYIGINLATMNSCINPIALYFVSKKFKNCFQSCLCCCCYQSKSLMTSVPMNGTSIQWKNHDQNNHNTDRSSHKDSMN

Mu-type opioid receptor = Mu-type opioid receptor (Homo sapiens, UniProt P35372); assay: DRUGMATRIX: Opiate mu (OP3, MOP) radioligand binding (ligand: [3H] Diprenorphine); type: cell membranes, CHO-K1, Membrane; conditions: cho-k1; Not Active = under 50% inhibition at 10 µM
Estrogen receptor = target: T4, Estrogen receptor (Homo sapiens, UniProt P03372); conditions: sf9; further: in other assays of this panel Not Active means under 50% inhibition at 10 µM
T4 sequence (P03372 whole entry): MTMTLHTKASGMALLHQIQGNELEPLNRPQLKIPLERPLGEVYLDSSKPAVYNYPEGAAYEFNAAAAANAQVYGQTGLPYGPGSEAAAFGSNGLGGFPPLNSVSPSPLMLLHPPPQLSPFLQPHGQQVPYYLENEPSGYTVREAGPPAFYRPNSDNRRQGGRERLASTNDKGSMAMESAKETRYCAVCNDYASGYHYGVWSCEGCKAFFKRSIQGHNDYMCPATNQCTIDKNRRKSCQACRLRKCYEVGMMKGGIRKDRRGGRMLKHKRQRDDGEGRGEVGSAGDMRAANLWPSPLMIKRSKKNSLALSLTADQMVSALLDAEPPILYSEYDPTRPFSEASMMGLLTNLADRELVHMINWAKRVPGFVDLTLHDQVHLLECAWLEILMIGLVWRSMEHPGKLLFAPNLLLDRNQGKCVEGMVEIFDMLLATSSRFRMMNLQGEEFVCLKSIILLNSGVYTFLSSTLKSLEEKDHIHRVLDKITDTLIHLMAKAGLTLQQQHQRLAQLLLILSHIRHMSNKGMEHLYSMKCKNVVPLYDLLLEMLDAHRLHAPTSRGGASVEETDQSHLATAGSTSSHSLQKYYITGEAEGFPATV

Chain of Mu-type opioid receptor (P35372 whole entry): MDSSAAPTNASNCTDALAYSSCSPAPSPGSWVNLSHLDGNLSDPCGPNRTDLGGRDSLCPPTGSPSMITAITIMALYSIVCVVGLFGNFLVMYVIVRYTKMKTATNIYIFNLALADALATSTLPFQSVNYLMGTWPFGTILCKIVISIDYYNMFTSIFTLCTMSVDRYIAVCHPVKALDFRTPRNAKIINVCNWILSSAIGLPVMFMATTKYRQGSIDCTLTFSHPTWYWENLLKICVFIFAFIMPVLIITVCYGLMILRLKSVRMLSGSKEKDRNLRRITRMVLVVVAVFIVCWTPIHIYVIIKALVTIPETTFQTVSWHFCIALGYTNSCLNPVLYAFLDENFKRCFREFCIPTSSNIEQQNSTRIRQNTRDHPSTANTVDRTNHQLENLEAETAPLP
Chain of Tyrosine-protein kinase Lck (P06239 whole entry): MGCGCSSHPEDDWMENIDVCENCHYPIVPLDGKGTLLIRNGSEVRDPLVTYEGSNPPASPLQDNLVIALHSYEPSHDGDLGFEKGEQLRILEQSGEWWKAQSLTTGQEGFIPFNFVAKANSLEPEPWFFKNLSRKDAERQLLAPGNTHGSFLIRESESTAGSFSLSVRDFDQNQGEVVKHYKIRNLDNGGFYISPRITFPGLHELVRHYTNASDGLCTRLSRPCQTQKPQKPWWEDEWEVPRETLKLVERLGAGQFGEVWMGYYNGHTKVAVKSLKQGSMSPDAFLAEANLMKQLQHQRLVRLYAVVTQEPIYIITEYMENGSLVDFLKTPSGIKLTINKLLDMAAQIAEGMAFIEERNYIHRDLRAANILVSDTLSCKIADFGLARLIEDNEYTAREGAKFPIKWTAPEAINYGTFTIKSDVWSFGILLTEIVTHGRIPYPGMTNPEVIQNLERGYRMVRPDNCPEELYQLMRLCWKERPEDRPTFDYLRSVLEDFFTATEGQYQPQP

CCn1cc(C(=O)O)c(=O)c2cc(F)c(N3CCNCC3)nc21 [ENOXACIN]
Not Active: IC50 (Neutrophil elastase) | IC50 [1] | IC50 [2] | IC50 [3] | Ki [3] | IC50 (Endothelin-1 receptor) | IC50 (Mu-type opioid receptor) | IC50 (Estrogen receptor)

CCC(=O)O[C@H]1[C@H](O[C@@H]2[C@@H](C)[C@H](O[C@H]3C[C@@](C)(OC)[C@@H](O)[C@H](C)O3)[C@@H](C)C(=O)O[C@H](CC)[C@@](C)(O)[C@H](O)[C@@H](C)C(=O)[C@H](C)C[C@@]2(C)O)O[C@H](C)C[C@@H]1N(C)C [ERYTHROMYCIN PROPIONATE]
Not Active: IC50 (Neutrophil elastase) | IC50 [1] | IC50 [2] | IC50 [3] | Ki [3] | IC50 (Endothelin-1 receptor) | IC50 (Mu-type opioid receptor) | IC50 (Estrogen receptor)

C=C(CC)C(=O)c1ccc(OCC(=O)O)c(Cl)c1Cl [ETHACRYNIC ACID]
Not Active: IC50 (Neutrophil elastase) | IC50 [1] | IC50 [2] | IC50 [3] | Ki [3] | IC50 (Endothelin-1 receptor) | IC50 (Mu-type opioid receptor) | IC50 (Estrogen receptor)

OCCO [ETHYLENE GLYCOL]
Not Active: IC50 (Neutrophil elastase) | IC50 [1] | IC50 [2] | IC50 [3] | Ki [3] | IC50 (Endothelin-1 receptor) | IC50 (Mu-type opioid receptor) | IC50 (Estrogen receptor)

CC(=O)OCC(CCn1cnc2cnc(N)nc21)COC(C)=O [FAMCICLOVIR]
Not Active: IC50 (Neutrophil elastase) | IC50 [1] | IC50 [2] | IC50 [3] | Ki [3] | IC50 (Endothelin-1 receptor) | IC50 (Mu-type opioid receptor) | IC50 (Estrogen receptor)

O=C(O)Cc1ccc(-c2ccccc2)cc1 [FELBINAC]
Not Active: IC50 (Neutrophil elastase) | IC50 [1] | IC50 [2] | IC50 [3] | Ki [3] | IC50 (Endothelin-1 receptor) | IC50 (Mu-type opioid receptor) | IC50 (Estrogen receptor)

CCOC(=O)C1=C(C)NC(C)=C(C(=O)OC)C1c1cccc(Cl)c1Cl (stereo not drawn) [FELODIPINE]
Not Active: IC50 (Neutrophil elastase) | IC50 [1] | IC50 [2] | IC50 [3] | Ki [3] | IC50 (Endothelin-1 receptor) | IC50 (Mu-type opioid receptor) | IC50 (Estrogen receptor)

CC(C(=O)O)c1ccc(-c2ccccc2)c(F)c1 (stereo not drawn) [FLURBIPROFEN]
Not Active: IC50 (Neutrophil elastase) | IC50 [1] | IC50 [2] | IC50 [3] | Ki [3] | IC50 (Endothelin-1 receptor) | IC50 (Mu-type opioid receptor) | IC50 (Estrogen receptor)

Cc1cn[nH]c1 [FOMEPIZOLE]
Not Active: IC50 (Neutrophil elastase) | IC50 [1] | IC50 [2] | IC50 [3] | Ki [3] | IC50 (Endothelin-1 receptor) | IC50 (Mu-type opioid receptor) | IC50 (Estrogen receptor)

NC[C@@H]1O[C@H](O[C@H]2[C@@H](O)[C@H](O[C@@H]3[C@@H](O)[C@H](N)C[C@H](N)[C@H]3O[C@H]3O[C@H](CN)[C@@H](O)[C@H](O)[C@H]3N)O[C@@H]2CO)[C@H](N)[C@@H](O)[C@@H]1O [FRAMYCETIN]
Not Active: IC50 (Neutrophil elastase) | IC50 [1] | IC50 [2] | IC50 [3] | Ki [3] | IC50 (Endothelin-1 receptor) | IC50 (Mu-type opioid receptor) | IC50 (Estrogen receptor)

C[C@H]([C@](O)(Cn1cncn1)c1ccc(F)cc1F)S(C)(=O)=O [GENACONAZOLE]
Not Active: IC50 (Neutrophil elastase) | IC50 [1] | IC50 [2] | IC50 [3] | Ki [3] | IC50 (Endothelin-1 receptor) | IC50 (Mu-type opioid receptor) | IC50 (Estrogen receptor)

Cc1cnc(C(=O)NCCc2ccc(S(=O)(=O)NC(=O)NC3CCCCC3)cc2)cn1 [GLIPIZIDE]
Not Active: IC50 (Neutrophil elastase) | IC50 [1] | IC50 [2] | IC50 [3] | Ki [3] | IC50 (Endothelin-1 receptor) | IC50 (Mu-type opioid receptor) | IC50 (Estrogen receptor)

Cc1c(F)c(N2CCNC(C)C2)cc2c1c(=O)c(C(=O)O)cn2C1CC1 (stereo not drawn) [GREPAFLOXACIN]
Not Active: IC50 (Neutrophil elastase) | IC50 [1] | IC50 [2] | IC50 [3] | Ki [3] | IC50 (Endothelin-1 receptor) | IC50 (Mu-type opioid receptor) | IC50 (Estrogen receptor)

C/C=C\c1ccc(O)c(OC)c1 [ISOEUGENOL]
Not Active: IC50 (Neutrophil elastase) | IC50 [1] | IC50 [2] | IC50 [3] | Ki [3] | IC50 (Endothelin-1 receptor) | IC50 (Mu-type opioid receptor) | IC50 (Estrogen receptor)

NC[C@H]1O[C@H](O[C@H]2[C@H](O)[C@@H](O[C@H]3O[C@H](CO)[C@@H](O)[C@H](N)[C@H]3O)[C@H](N)C[C@@H]2N)[C@H](O)[C@@H](O)[C@@H]1O [KANAMYCIN]
Not Active: IC50 (Neutrophil elastase) | IC50 [1] | IC50 [2] | IC50 [3] | Ki [3] | IC50 (Endothelin-1 receptor) | IC50 (Mu-type opioid receptor) | IC50 (Estrogen receptor)

CC[C@H](C)C(=O)O[C@H]1C[C@@H](C)C=C2C=C[C@H](C)[C@H](CC[C@@H]3C[C@@H](O)CC(=O)O3)[C@H]21 [LOVASTATIN]
Not Active: IC50 (Neutrophil elastase) | IC50 [1] | IC50 [2] | IC50 [3] | Ki [3] | IC50 (Endothelin-1 receptor) | IC50 (Mu-type opioid receptor) | IC50 (Estrogen receptor)
